Data: patent US20120157471A1, “BENZIMIDAZOLE DERIVATIVES” (PFIZER INC., priority 2009, published 2012)

Key:
[1] = target: T1, human Smo (amino acids 181-787) (Homo sapiens, UniProt Q99835); assay: Smo radioligand competition binding assay (displacement of 3H-PF-03451358 from HEK293 membranes); conditions: for inhibition at 0.05 µM: 0.05 μM test compound, displacement of 3H-PF-03451358, read-out: SMO % inh. @ 0.05 μM; for IC50: radioligand competition binding
T1 construct: expressed in transfected cells; membrane preparation
T1 sequence (Q99835 181-787): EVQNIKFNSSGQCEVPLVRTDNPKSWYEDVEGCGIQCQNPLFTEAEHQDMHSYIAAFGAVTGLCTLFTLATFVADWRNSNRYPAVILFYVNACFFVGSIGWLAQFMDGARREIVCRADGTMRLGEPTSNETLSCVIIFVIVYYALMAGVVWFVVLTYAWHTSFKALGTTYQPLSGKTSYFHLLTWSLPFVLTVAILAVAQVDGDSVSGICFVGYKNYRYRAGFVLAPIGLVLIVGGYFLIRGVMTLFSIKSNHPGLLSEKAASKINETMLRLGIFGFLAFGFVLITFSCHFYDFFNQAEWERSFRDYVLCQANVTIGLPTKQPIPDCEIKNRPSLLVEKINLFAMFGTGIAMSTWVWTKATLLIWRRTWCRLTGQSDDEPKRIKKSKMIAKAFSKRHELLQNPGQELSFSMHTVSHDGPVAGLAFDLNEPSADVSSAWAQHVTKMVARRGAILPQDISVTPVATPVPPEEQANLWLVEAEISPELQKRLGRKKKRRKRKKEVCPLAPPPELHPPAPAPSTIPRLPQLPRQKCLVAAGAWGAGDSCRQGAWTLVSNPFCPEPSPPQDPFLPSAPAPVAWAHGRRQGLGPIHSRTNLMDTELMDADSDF
In short: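 Displacement of 3 nM tritiated PF-03451358 measured by filtration and scintillation counting after 2 h at room temperature, using 40 μg/well HEK293 membranes bearing cell-surface Smo 181-787, pH 7.5 buffer. Specific binding defined against 30 μM unlabelled ligand; IC50 via variable-slope sigmoidal fit.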

[2] = system: Gli-Luc/MEF cells (Smo); assay: Gli-Luc/MEF assay (Shh-stimulated luciferase reporter under the Gli response element); type: cell-based, mouse; conditions: Mus musculus, MEF, 48 h
In short: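 IC50 derived from luminescence (Bright-Glo) after 48 h at 37° C, 5% CO2, with compound at […] (3-fold dilutions) added together with mouse Shh at 2 μg/mL final. Cells: MEFs from Gli-Luc transgenic mice.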

Structure (SMILES) | inhibition at 0.05 µM [1] | IC50 [1] | IC50 [2]
COCc1nnc2n1CCN(c1cc(-c3nc4ccccc4n3C)c(Cl)cn1)CC2 [Example A-93, 7-[5-chloro-4-(1-methyl-1H-benzimidazol-2-yl)pyridin-2-yl]-3-(methoxymethyl)-6,7,8,9-tetrahydro-5H-[1,2,4]triazolo[4,3-d][1,4]diazepine] | 87% | 53 nM | 31 nM
CNC(=O)N1CCN(c2nccc(-c3nc4ccccc4n3C)n2)CC1 [Example C-8, N-Methyl-4-[4-(1-methyl-1H-benzimidazol-2-yl)pyrimidin-2-yl]piperazine-1-carboxamide] | 54% | 538 nM | 408 nM
CNC(=O)N1CCN(c2cccc(-c3nc4ccccc4n3C)n2)CC1 [Example B-10, N-methyl-4-[6-(1-methyl-1H-benzimidazol-2-yl)pyridin-2-yl]piperazine-1-carboxamide] | 72% | 82 nM | 89 nM
Cn1c(-c2cc(N3CC(NC(=O)C4CCOCC4)C3)ncc2Cl)nc2ccccc21 [Example A-205, N-{1-[5-chloro-4-(1-methyl-1H-benzimidazol-2-yl)pyridin-2-yl]azetidin-3-yl}tetrahydro-2H-pyran-4-carboxamide] | 93% |  | 14.2 nM
Cn1c(-c2cc(N3C[C@@H](CO)[C@@H](CCO)C3)ncc2Cl)nc2ccccc21 [Example A-111, 2-[(3R,4S)-1-[5-chloro-4-(1-methyl-1H-benzimidazol-2-yl)pyridin-2-yl]-4-(hydroxymethyl)pyrrolidin-3-yl]ethanol] | 73% | 116 nM | 25 nM
CNC(=O)COC1CCN(c2cc(-c3nc4ccccc4n3C)c(Cl)cn2)CC1 [Example A-84, 2-({1-[5-chloro-4-(1-methyl-1H-benzimidazol-2-yl)pyridin-2-yl]piperidin-4-yl}oxy)-N-methylacetamide] | 91% | 21 nM | 42 nM
CC(=O)N1CCN(c2ccc(Cl)c(-c3nc4ccccc4n3C)n2)CC1 [Example B-2, 2-[6-(4-acetylpiperazin-1-yl)-3-chloropyridin-2-yl]-1-methyl-1H-benzimidazole] | 95% | 18 nM | 32 nM
Cn1c(-c2ccnc(N3CCC(CS(C)(=O)=O)CC3)c2)nc2ccccc21 [Example A-12, 1-methyl-2-(2-{4-[(methylsulfonyl)methyl]piperidin-1-yl}pyridin-4-yl)-1H-benzimidazole] | 82% | 48 nM | 23 nM
Cn1c(-c2cc(N3CCC(F)(F)CC3)ncc2Cl)nc2ccccc21 [Example A-210, 2-[5-chloro-2-(4,4-difluoropiperidin-1-yl)pyridin-4-yl]-1-methyl-1H-benzimidazole] | 87% | 57 nM | 22 nM
Cc1nc(CC2CN(c3cc(-c4nc5ccccc5n4C)c(Cl)cn3)CCO2)no1 (centres unmarked) [Example A-52, 2-(5-chloro-2-{2-[(5-methyl-1,2,4-oxadiazol-3-yl)methyl]morpholin-4-yl}pyridin-4-yl)-1-methyl-1H-benzimidazole] | 99% | 13 nM | 13 nM
Cn1c(-c2cc(N3CCC(O)(c4ccn[nH]4)C3)ncc2Cl)nc2ccccc21 (centres unmarked) [Example A-105, 1-[5-chloro-4-(1-methyl-1H-benzimidazol-2-yl)pyridin-2-yl]-3-(1H-pyrazol-5-yl)pyrrolidin-3-ol] | 79% | 65 nM | 24 nM
C[C@H]1CN(S(C)(=O)=O)CCN1c1cc(-c2nc3ccccc3n2C)c(Cl)cn1 [Example A-196, 2-{5-chloro-2-[(2S)-2-methyl-4-(methylsulfonyl)piperazin-1-yl]pyridin-4-yl}-1-methyl-1H-benzimidazole] | 99% | 8 nM | 6.7 nM
Cn1c(-c2cc(N3CCNC(=O)CC3)ncc2Cl)nc2ccccc21 [Example A-33, 1-[5-chloro-4-(1-methyl-1H-benzimidazol-2-yl)pyridin-2-yl]-1,4-diazepan-5-one] | 98% | 9 nM | 8 nM
CC(=O)N1CCN(c2cccc(-c3nc4ccccc4n3C)n2)CC1 [Example B-8, 2-[6-(4-acetylpiperazin-1-yl)pyridin-2-yl]-1-methyl-1H-benzimidazole] | 90% | 32 nM | 46 nM
CN(CCS(C)(=O)=O)c1cc(-c2nc3ccccc3n2C)c(Cl)cn1 [Example A-72, 5-chloro-N-methyl-4-(1-methyl-1H-benzimidazol-2-yl)-N-[2-(methylsulfonyl)ethyl]pyridin-2-amine] | 94% | 25 nM | 12 nM
Cc1nnc(C)n1C1CCN(c2cc(-c3nc4ccccc4n3C)c(Cl)cn2)CC1 [Example A-124, 2-{5-chloro-2-[4-(3,5-dimethyl-4H-1,2,4-triazol-4-yl)piperidin-1-yl]pyridin-4-yl}-1-methyl-1H-benzimidazole] | 59% |  | 52 nM
CC1CC2(CCN1c1cc(-c3nc4ccccc4n3C)c(Cl)cn1)CNC(=O)C2 (stereo in doubt) [Example A-48, (5R,7S)-8-[5-chloro-4-(1-methyl-1H-benzimidazol-2-yl)pyridin-2-yl]-7-methyl-2,8-diazaspiro[4.5]decan-3-one] | 100% | 7 nM | 7 nM
CN(CC(C)(C)O)c1cc(-c2nc3ccccc3n2C)c(Cl)cn1 [Example A-209, 1-{[5-chloro-4-(1-methyl-1H-benzimidazol-2-yl)pyridin-2-yl](methyl)amino}-2-methylpropan-2-ol] | 97% | 18 nM | 19.6 nM
Cn1c(-c2cc(N3CCN(C(=O)CO)CC3)ncc2Cl)nc2ccccc21 [Example A-202, 2-{4-[5-chloro-4-(1-methyl-1H-benzimidazol-2-yl)pyridin-2-yl]piperazin-1-yl}-2-oxoethanol] | 97% | 11 nM | 9 nM
COC(=O)NC1CN(c2cc(-c3nc4ccccc4n3C)c(Cl)cn2)C1 [Example A-44] | 89% | 59 nM | 22 nM
Cn1cnnc1C1CCN(c2cc(-c3nc4ccccc4n3C)c(Cl)cn2)CC1 [Example A-132, 2-{5-chloro-2-[4-(4-methyl-4H-1,2,4-triazol-3-yl)piperidin-1-yl]pyridin-4-yl}-1-methyl-1H-benzimidazole] | 51% |  | 199 nM
Cn1c(-c2cc(N3CCC(CO)C3)ncc2Cl)nc2ccccc21 (centres unmarked) [Example A-102, {1-[5-chloro-4-(1-methyl-1H-benzimidazol-2-yl)pyridin-2-yl]pyrrolidin-3-yl}methanol] | 80% | 91 nM | 40 nM
CC(=O)N1CCN(c2cc(-c3nc4ccccc4[nH]3)c(Cl)cn2)CC1 [Example A-215, 2-[2-(4-acetylpiperazin-1-yl)-5-chloropyridin-4-yl]-1H-benzimidazole] | 79% | 189 nM | 63 nM
Cn1c(-c2cc(N3CCC(O)(c4cncnc4)C3)ncc2Cl)nc2ccccc21 (centres unmarked) [Example A-128, 1-[5-chloro-4-(1-methyl-1H-benzimidazol-2-yl)pyridin-2-yl]-3-pyrimidin-5-ylpyrrolidin-3-ol] | 54% |  | 80 nM
